# Source: US6025358A, “Double prodrugs of potent GP IIb/IIIa antagonists” (G. D. Searle & Co., priority 1999, dated 2000)
# Counter-ions that a name gives are not always drawn.
# Test system: platelet aggregation
# Assay: Ex vivo screening of oral GP IIb/IIIa inhibitors: inhibition of collagen-induced platelet aggregation in PRP after oral dosing in beagles
# Details: beagle dogs, 5 mpk, collagen agonist; for inhibition in vivo at 5 mg/kg: Canis lupus familiaris, Platelet, n = 2, 32 hours post-dosing, read-out: Percent inhibition of platelet aggregation at 32 hour post-dosing; for % inhibition of platelet aggregation @ 10 hours: n = 2, 10 hours post-dosing
# Experimental: Beagles (8-13 kg, various sources) of either sex are dosed orally with compound in a gelatin capsule. Blood samples are drawn from the cephalic vein using a 23 ga infusion butterfly. Samples for platelet aggregation and drug concentration are taken prior to dosing and 0.5, 1, 2, 3, 5, 7 and 10 hours after dosing and periodically on subsequent days until inhibition of platelet aggregation is less than 30%. Animals are fasted, with ad lib access to water, overnight prior to dosing. For measurement of plasma concentration blood is drawn into a 3 ml tube containing 45 USP units of Na Heparin. Blood is centrifuged at 1700×g for 10 minutes, plasma is aspirated and frozen at -20° C. until analyzed by HPLC. For measurement of platelet aggregation, blood is drawn into 2 2.0 ml tubes containing 0.2 ml of 3.8% Na Citrate. Blood is centrifuged at 250×g for 6 minutes and the platelet rich plasma (PRP) is aspirated. The remaining blood is centrifuged at 1700×g for 10 minutes and platelet poor plasma (PPP) is aspirated. Platelet aggregation is performed in a Bio-Data PAP-4 aggregometer (Bio-Data Corp., Havertown, Pa.) using collagen (100 μg/ml final concentration; Helena Laboratories, Beaumont, Tex.) as the agonist. Briefly, baseline (100% aggregation) is set using PPP; PRP is incubated at 37° C. for one minute without stirring and one minute with stirring, agonist is added and aggregation is allowed to develop for 4 minutes. Percent aggregation post-dosing is compared to percent aggregation pre-dosing to determine percent inhibition.
# Percent inhibition of platelet aggregation at 32 hour post-dosing in
# beagle dogs (5 mpk, n = 2)
SMILES,inhibition in vivo at 5 mg/kg [%],% inhibition of platelet aggregation @ 10 hours [%]
"CCCCOC(=O)CCNC(=O)N[C@H]1CCN(c2ccc(C(=N)NOC(=O)N(C)CCN(C)C)cc2)C1=O [3(u), N-[[[(3S)-1-[4-(1-imino-5,8-dimethyl-4-oxo-3-oxa-2,5,8-triazanon-1-yl)phenyl]-2-oxo-3-pyrrolidinyl]amino]carbonyl]-β-alanine butyl ester dihydrochloride]",63,
"CCOC(=O)CCNC(=O)N[C@H]1CCN(c2ccc(C(N)=NOC(=O)N(C)C)cc2)C1=O [4(a), N-[[[(3S)-1-[4-[[[[(dimethylamino)carbonyl]oxy]amino]iminomethyl]phenyl]-2-oxo-3-pyrrolidinyl]amino]carbonyl]-β-alanine ethyl ester]",63,
"CC(C)OC(=O)CCNC(=O)N[C@H]1CCN(c2ccc(C(N)=NOC(=O)N(C)C)cc2)C1=O [4(b), N-[[[(3S)-1-[4-[[[[(dimethylamino)carbonyl]oxy]amino]iminomethyl]phenyl]-2-oxo-3-pyrrolidinyl]amino]carbonyl]-β-alanine 1-methylethyl ester]",20,
"CCCOC(=O)CCNC(=O)N[C@H]1CCN(c2ccc(C(N)=NOC(=O)N(C)C)cc2)C1=O [4(c), N-[[[(3S)-1-[4-[[[[(dimethylamino)carbonyl]oxy]amino]iminomethyl]phenyl]-2-oxo-3-pyrrolidinyl]amino]carbonyl]-β-alanine propyl ester]",64,
"CCOC(=O)CCNC(=O)N[C@H]1CCN(c2ccc(C(N)=NOC(N)=O)cc2)C1=O [5(a), N-[[[(3S)-1-[4-[[[(aminocarbonyl)oxy]amino]iminomethyl]phenyl]-2-oxo-3-pyrrolidinyl]amino]carbonyl]-β-alanine ethyl ester]",82,
"CC(C)OC(=O)CCNC(=O)N[C@H]1CCN(c2ccc(C(N)=NOC(N)=O)cc2)C1=O [5(b), N-[[[(3S)-1-[4-[[[(aminocarbonyl)oxy]amino]iminomethyl]phenyl]-2-oxo-3-pyrrolidinyl]amino]carbonyl]-β-alanine 1-methylethyl ester]",64,
"NC(=O)ON=C(N)c1ccc(N2CC[C@H](NC(=O)NCCC(=O)OC3CCCCC3)C2=O)cc1 [5(h), N-[[[(3S)-1-[4-[[[(aminocarbonyl)oxy]amino]iminomethyl]phenyl]-2-oxo-3-pyrrolidinyl]amino]carbonyl]-β-alanine cyclohexyl ester]",28,
"CN(C)CCN(C)C(=O)ONC(=N)c1ccc(N2CC[C@H](NC(=O)NCCC(=O)O)C2=O)cc1.O.O=C(O)C(F)(F)F.O=C(O)C(F)(F)F [6(a), N-[[[(3S)-1-[4-(1-imino-5,8-dimethyl-4-oxo-3-oxa-2,5,8-triazanon-1-yl)phenyl]-2-oxo-3-pyrrolidinyl]amino]carbonyl]-β-alanine bis(trifluoroacetate) monohydrate]",,61
"NC(=O)ON=C(N)c1ccc(N2CC[C@H](NC(=O)NCCC(=O)O)C2=O)cc1 [6(d), N-[[[(3S)-1-[4-[[[(aminocarbonyl)oxy]amino]iminomethyl]phenyl]-2-oxo-3-pyrrolidinyl]amino]carbonyl]-β-alanine]",,15
"N=C(N)c1ccc(N2CC[C@H](NC(=O)NCCC(=O)O)C2=O)cc1 [6(e), N-[[[(3S)-1-[4-(Aminoiminomethyl)phenyl]-2-oxo-3-pyrrolidinyl]amino]-carbonyl]-β-alanine trifluoroacetate, reference compound]",,28
"COC(=O)CCNC(=O)N[C@H]1CCN(c2ccc(C(N)=NO)cc2)C1=O [Example 1(a), N-[[[(3S)-1-[4-[(hydroxyamino)iminomethyl]phenyl]-2-oxo-3-pyrrolidinyl]amino]carbonyl]-β-alanine methyl ester]",85,
"CCOC(=O)CCNC(=O)N[C@H]1CCN(c2ccc(C(N)=NO)cc2)C1=O [Example 1, N-[[[(3S)-1-[4-[(hydroxyamino)iminomethyl]phenyl]-2-oxo-3-pyrrolidinyl]amino]carbonyl]-β-alanine ethyl ester monohydrochloride]",95,
"COC(=O)CCNC(=O)N[C@H]1CCN(c2ccc(C(=N)NOC(=O)N3CCN(C)CC3)cc2)C1=O [Example 3, N-[[[(3S)-1-[4-[imino[[[(4-methyl-1-piperazinyl)-carbonyl]oxy]amino]-methyl]phenyl]-2-oxo-3-pyrrolidinyl]amino]carbonyl]-β-alanine methyl ester]",66,
"COC(=O)CCNC(=O)N[C@H]1CCN(c2ccc(C(N)=NOC(=O)N(C)C)cc2)C1=O [Example 4, N-[[[(3S)-1-[4-[[[[(dimethylamino)carbonyl]oxy]amino]iminomethyl]phenyl]-2-oxo-3-pyrrolidinyl]amino]carbonyl]-β-alanine methyl ester]",68,
"COC(=O)CCNC(=O)N[C@H]1CCN(c2ccc(C(N)=NOC(N)=O)cc2)C1=O [Example 5, N-[[[(3S)-1-[4-[[[(aminocarbonyl)oxy]amino]iminomethyl]-phenyl]-2-oxo-3-pyrrolidinyl]amino]carbonyl]-β-alanine methyl ester]",89,
"CCOC(=O)CCNC(=O)N[C@H]1CCN(c2ccc(C(=N)NC(=O)c3ccccc3)cc2)C1=O [Example 7, N-[[[3(S)-1-[4-[imino[(phenylcarbonyl)amino]methyl]phenyl]-2-oxo-3-pyrrolidinyl]amino]carbonyl]-β-alanine ethyl ester]",53,
"CCOC(=O)CCNC(=O)N[C@H]1CCN(c2ccc(C(N)=NOC(C)=O)cc2)C1=O [Example 8, N-[[[(3S)-1-[4-[[(acetyloxy)amino]iminomethyl]phenyl]-2-oxo-3-pyrrolidinyl]amino]carbonyl]-β-alanine ethyl ester]",57,
"CCOC(=O)CCNC(=O)N[C@H]1CCN(c2ccc(C(N)=NOC(=O)OCC)cc2)C1=O [Example 9, N-[[[(3S)-1-[4-[[[(ethoxycarbonyl)oxy]amino]iminomethyl]phenyl]-2-oxo-3-pyrrolidinyl]amino]carbonyl]-β-alanine ethyl ester]",90,
"CCOC(=O)CCNC(=O)N[C@H]1CCN(c2ccc(C(=N)NOC(=O)OCC(Cl)(Cl)Cl)cc2)C1=O [Example 10, N-[[[(3S)-1-[4-[imino[[[(2,2,2-trichloroethoxy)carbonyl]oxy]amino]methyl]phenyl]-2-oxo-3-pyrrolidinyl]amino]carbonyl]-β-alanine ethyl ester]",84,
